# In patent US11324786B2, “Lactic acid bacteria and use thereof” (priority 2017, dated 2022):
# Key:
# Format in all cases: in vivo, mouse
# colitis animal model = test: TNBS colitis animal model: weight change, colon length, toxicity; details: TNBS colitis mice; oral once daily for 3 days; lactic acid bacteria 1×10^9 CFU, sulfasalazine 50 mg/kg
# Description: One group was used as a normal group, and the other group was treated with 2,4,6-trinitrobenzenesulfonic acid (TNBS) to induce colitis. Specifically, after test animals were anesthetized with ether, 0.1 ml of TNBS solution mixed with 50% ethanol was injected into the large intestine through the anus using a 1 ml syringe with a round tip, and the test animals were raised up vertically for 30 seconds to cause inflammation. Meanwhile, 0.1 ml of physiological saline was orally administered to the normal group. […] The next day when the lactic acid bacteria administration was finished, the test animal was sacrificed, and a portion of the colon from a cecum to a site immediately before the anus was removed and then a length thereof was measured. Then, various following indicators were identified based on the length. On the other hand, 1% dextrose solution as a suspension of lactic acid bacteria instead of the novel lactic acid bacteria was administered orally to the test animals in the normal group. Further, a test animal of a positive control group was orally treated with a colitis treatment drug sulfasalazine in an amount of 50 mg/kg instead of the novel lactic acid bacteria.
# myeloperoxidase (MPO) = test: Colitis animal model: myeloperoxidase activity in colon tissue; details: TNBS colitis mice, oral once daily for 3 days, lactic acid bacteria 1×10^9 CFU, sulfasalazine 50 mg/kg
# Description: 6 C57BL/6 mice (male, 21 to 23 g, 6 weeks old) formed one group which was adapted to a test room for 1 week. One group was used as a normal group, and the other group was treated with 2,4,6-trinitrobenzenesulfonic acid (TNBS) to induce colitis. Specifically, after test animals were anesthetized with ether, 0.1 ml of TNBS solution mixed with 50% ethanol was injected into the large intestine through the anus using a 1 ml syringe with a round tip, and the test animals were raised up vertically for 30 seconds to cause inflammation. Meanwhile, 0.1 ml of physiological saline was orally administered to the normal group. […] The next day when the lactic acid bacteria administration was finished, the test animal was sacrificed, and a portion of the colon from a cecum to a site immediately before the anus was removed and then a length thereof was measured. […]
# 200 μl of 10 mM potassium phosphate buffer (pH 7.0) containing 0.5% hexadecyl trimethyl ammonium bromide was added to 100 mg of colon tissue, and was homogenized. […] 50 μl of the supernatant was added to 0.95 ml of a reaction solution (containing 1.6 mM tetramethyl benzidine and 0.1 mM H2O2) and the absorbance was measured over time at 650 nm while reacting at 37° C. The activity of myeloperoxidase (MPO) was calculated while 1 μmol/ml of H2O2 generated as a reactant was defined as one unit.
# TNF-α = test: Colitis animal model: TNF-α in colon; details: colon tissue, TNBS colitis mice; oral once daily for 3 days; lactic acid bacteria 1×10^9 CFU
# Description: (§1) 6 C57BL/6 mice (male, 21 to 23 g, 6 weeks old) formed one group which was adapted to a test room for 1 week. One group was used as a normal group, and the other group was treated with 2,4,6-trinitrobenzenesulfonic acid (TNBS) to induce colitis. Specifically, after test animals were anesthetized with ether, 0.1 ml of TNBS solution mixed with 50% ethanol was injected into the large intestine through the anus using a 1 ml syringe with a round tip, and the test animals were raised up vertically for 30 seconds to cause inflammation. Meanwhile, 0.1 ml of physiological saline was orally administered to the normal group. After the administration, the novel lactic acid bacterium Lactobacillus mucosae NK41, Bifidobacterium longum NK46 or a 1:1 mixture thereof was suspended in physiological saline which in turn was orally administered thereto in an amount of 1×10^9 CFU once daily for 3 days from a next day. The next day when the lactic acid bacteria administration was finished, the test animal was sacrificed, and a portion of the colon from a cecum to a site immediately before the anus was removed and then a length thereof was measured. […]
# (§2) Western blotting methods were used to measure inflammatory response indicator materials, such as p-p65, p65, COX-2 and IL-17. […] Further, the expression level of cytokines thereof was measured using an ELISA kit.
# IL-17 = test: Colitis animal model: IL-17 in colon; details: colon tissue, TNBS colitis mice; oral once daily for 3 days; lactic acid bacteria 1×10^9 CFU, sulfasalazine 50 mg/kg
# Description: as §1, §2
# COX-2 = test: Colitis animal model: COX-2 in colon; details: colon tissue, TNBS colitis mice; oral once daily for 3 days; lactic acid bacteria 1×10^9 CFU, sulfasalazine 50 mg/kg
# Description: as §1, §2
smiles,measurement,setting,value
"O=C(O)c1cc(/N=N/c2ccc(S(=O)(=O)Nc3ccccn3)cc2)ccc1O [Positive group, sulfasalazine]",Colon length,colitis animal model,4.7 cm
same,Weight change,colitis animal model,-0.54 g
same,MPO activity,myeloperoxidase (MPO),0.98 μU/mg
same,TNF-α,TNF-α,75 pg/mg
same,IL-17,IL-17,41 pg/mg
same,COX-2 activity,COX-2,0.41
